Test results taken from patent publication US20090233907A1, “Pyridopyrimidine Derivatives and Their Use as PDE4 Inhibitors” (ASTRAZENECA AB, priority 2006, published 2009).

Biological target: T1, recombinant Human Phosphodiesterase B2 (PDE4B2) (Homo sapiens, UniProt Q07343)
Test: Human Phosphodiesterase B2 Alpha Screen Assay
Type: biochemical
Conditions: Alpha Screen cAMP assay
Experimental: Human Phosphodiesterase B2 Alpha Screen Assay
The assay uses recombinant Human Phosphodiesterase B2 (PDE4B2) produced in house (PrAZL0133), stored at −20° C. The substrate uses cAMP, part of the Alpha Screen cAMP kit (Perkin Elmer, Cat# 6760625M), stored at 4° C. The Alpha Screen kit also includes biotinylated cAMP, acceptor and donor beads.
The assay additions were as follows: Test compounds and controls were added to white 384-well flat-bottom plates (Greiner, Cat# 781075), 0.2 μl in 100% DMSO, followed by 10 μl PDE4B2 in reaction buffer. The reaction buffer constitution was: 50 mM Tris (pH 7.5), 8.3 mM MgCl2, 1.7 mM EGTA and 0.01% (w/v) Brij®35. The enzyme and the compounds were incubated at room temperature for 15 minutes. Then 10 μl cAMP in reaction buffer was added. The assay was stopped after 60 minutes incubation at room temperature by adding 10 μl acceptor beads in detection buffer with 40 mM EDTA. The detection buffer constitution was: 5 mM Tris (pH 7.5), 0.1% (w/v) BSA and 0.1% (v/v) Tween 20. This addition followed by an addition of 10 μl donor beads in detection buffer, with biotinylated cAMP. The plates were then incubated, dark at room temperature, for 5 hours followed by measurement on a Fusion™-α analyser. IC50 values (presented in Table 4) were determined using Xlfit curve fitting using model 205.

T1 sequence (Q07343 1-564 isoform Q07343-2): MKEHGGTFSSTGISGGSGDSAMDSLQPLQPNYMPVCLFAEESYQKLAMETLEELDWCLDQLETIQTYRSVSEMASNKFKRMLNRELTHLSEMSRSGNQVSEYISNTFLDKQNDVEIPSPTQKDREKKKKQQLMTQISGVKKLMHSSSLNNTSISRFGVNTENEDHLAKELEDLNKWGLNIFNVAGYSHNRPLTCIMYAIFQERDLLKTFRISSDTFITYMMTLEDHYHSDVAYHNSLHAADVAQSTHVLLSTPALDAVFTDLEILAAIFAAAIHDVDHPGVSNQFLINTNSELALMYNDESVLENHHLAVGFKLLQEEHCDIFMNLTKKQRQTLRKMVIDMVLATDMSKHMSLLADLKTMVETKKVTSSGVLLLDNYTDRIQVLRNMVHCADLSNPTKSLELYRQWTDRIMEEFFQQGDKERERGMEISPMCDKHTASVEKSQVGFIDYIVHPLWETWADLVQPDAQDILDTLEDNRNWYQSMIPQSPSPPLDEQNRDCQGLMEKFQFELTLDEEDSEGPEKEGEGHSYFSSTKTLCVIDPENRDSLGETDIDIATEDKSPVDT

**Q.** Which IC50 does the source give for O=C(Cc1ccc(O)cc1)N[C@H]1CC[C@@H](n2c(=O)c3cc(F)cnc3n(C3CCSCC3)c2=O)CC1 [Example 15, N-{cis-4-[6-fluoro-2,4-dioxo-1-(tetrahydro-2H-thiopyran-4-yl)-1,4-dihydropyrido[2,3-d]pyrimidin-3(2H)-yl]cyclohexyl}-2-(4-hydroxyphenyl)acetamide] here?
**A.** 1.75 nM

**Q.** For O=C(N[C@H]1CC[C@@H](n2c(=O)c3cc(F)cnc3n(C3CCSCC3)c2=O)CC1)c1cccc2cccnc12 [Example 3, N-{cis-4-[6-fluoro-2,4-dioxo-1-(tetrahydro-2H-thiopyran-4-yl)-1,4-dihydropyrido[2,3-d]pyrimidin-3(2H)-yl]cyclohexyl}quinoline-8-carboxamide], which IC50 is on record?
**A.** 1.31 nM

**Q.** O=C(N[C@H]1CC[C@@H](n2c(=O)c3cc(F)cnc3n(C3CCSCC3)c2=O)CC1)c1cccc(O)c1 [Example 14, N-{cis-4-[6-fluoro-2,4-dioxo-1-(tetrahydro-2H-thiopyran-4-yl)-1,4-dihydropyrido[2,3-d]pyrimidin-3(2H)-yl]cyclohexyl}-3-hydroxybenzamide] was tested. Which IC50 did it give?
**A.** 1.8 nM

**Q.** Which IC50 does the source give for O=C(N[C@H]1CC[C@@H](n2c(=O)c3cc(F)cnc3n(C3CCSCC3)c2=O)CC1)C1CCCCC1 [Example 18, N-{cis-4-[6-fluoro-2,4-dioxo-1-(tetrahydro-2H-thiopyran-4-yl)-1,4-dihydropyrido[2,3-d]pyrimidin-3(2H)-yl]cyclohexyl}cyclohexanecarboxamide] here?
**A.** 2.15 nM

**Q.** Which IC50 does the source give for O=C(N[C@H]1CC[C@@H](n2c(=O)c3cc(F)cnc3n(C3CCSC3)c2=O)CC1)C1CC1 (relative stereo) [Example 27, N-{cis-4-[6-fluoro-2,4-dioxo-1-(tetrahydro-3-thienyl)-1,4-dihydropyrido[2,3-d]pyrimidin-3(2H)-yl]cyclohexyl}cyclopropanecarboxamide] here?
**A.** 10.7 nM

Biological target: T1, recombinant Human Phosphodiesterase B2 (PDE4B2)
Test: Human Phosphodiesterase B2 Radiometric Assay
Type: biochemical
Conditions: radiometric SPA assay, [3H]cyclic AMP 8 nM, read-out: PDE4B2 pIC50 (converted)
Experimental: Human Phosphodiesterase B2 Radiometric Assay
The assay uses recombinant Human Phosphodiesterase B2 (PDE4B2) produced in house (PrAZL0163), stored at −20° C. This assay is based on the observation that 5′AMP, the product of the reaction catalysed by PDE4, binds preferentially to yttrium silicate SPA beads (Amersham Biosciences, UK) compared to the substrate, cAMP. Compounds at the appropriate concentration were preincubated at 30 C for 30 min with an assay buffer containing 50 mM HEPES (pH 7.5), 8.3 mM MgCl2, 1.7 mM EGTA, 0.01% (w/v) Brij®35 and 0.1 μg/mL recombinant PDE4B2. The reaction was started by the addition of [3H]cyclic AMP to give a final concentration of 8 nM, and was stopped 20 minutes after the addition of the substrate by the addition of yttrium silicate SPA beads containing 18 mM Zn SO4. Bound [3H]cyclic AMP was measured using a Topcount NXT (Packard Bioscience, UK). pIC50 values (presented in Table 5) were determined using Xlfit3 curve fitting, using model 205.

**Q.** How did the IC50 turn out when O=C(N[C@H]1CC[C@@H](n2c(=O)c3cc(F)cnc3n(C3CCSCC3)c2=O)CC1)c1cn2c(n1)CCCC2 [Example 33, N-{cis-4-[6-fluoro-2,4-dioxo-1-(tetrahydro-2H-thiopyran-4-yl)-1,4-dihydropyrido[2,3-d]pyrimidin-3(2H)-yl]cyclohexyl}-5,6,7,8-tetrahydroimidazo[1,2-a]pyridine-2-carboxamide] was run?
**A.** 0.398 nM

**Q.** O=C(N[C@H]1CC[C@@H](n2c(=O)c3cc(F)cnc3n(C3CCSCC3)c2=O)CC1)C(O)c1ccc(O)cc1 (stereo partly drawn) [Example 64b, N-{cis-4-[6-fluoro-2,4-dioxo-1-(tetrahydro-2H-thiopyran-4-yl)-1,4-dihydropyrido[2,3-d]pyrimidin-3(2H)-yl]cyclohexyl}-2-hydroxy-2-(4-hydroxyphenyl)acetamide] was tested. Which IC50 did it give?
**A.** 0.316 nM

**Q.** CN(C)c1ccc(C(=O)NC2CCC(n3c(=O)c4cc(F)cnc4n(C4CCSCC4)c3=O)CC2)cc1 (stereo not drawn) [Example 67, 4-dimethylamino-N-[4-(9-fluoro-2,4-dioxo-5-tetrahydrothiopyran-4-yl-3,5,7-triazabicyclo[4.4.0]deca-6,8,10-trien-3-yl)cyclohexyl]benzamide] was tested. Which IC50 did it give?
**A.** 0.501 nM

**Q.** How did the IC50 turn out when O=C(N[C@H]1CC[C@@H](n2c(=O)c3cc(F)cnc3n(C3CCSCC3)c2=O)CC1)c1cn2cc(F)ccc2n1 [Example 41, 6-fluoro-N-{cis-4-[6-fluoro-2,4-dioxo-1-(tetrahydro-2H-thiopyran-4-yl)-1,4-dihydropyrido[2,3-d]pyrimidin-3(2H)-yl]cyclohexyl}imidazo[1,2-a]pyridine-2-carboxamide] was run?
**A.** 0.126 nM
